Test results taken from ChEMBL document CHEMBL2375339, “Synthesis and evaluation of 7,8-dehydrorutaecarpine derivatives as potential multifunctional agents for the treatment of Alzheimer's disease” (Eur J Med Chem, 2013).
Activity calls are given as the source filed them. The calls are words filed in the database; no cut-off is given here.

What was measured:
Acetylcholinesterase = Acetylcholinesterase (Electrophorus electricus, UniProt O42275)
Description: Inhibition of electric eel acetylcholinesterase using acetylthiocholine as substrate incubated for 15 mins followed by substrate addition measured for 2 mins by Ellman's method

cells = settings: Homo sapiens, SH-SY5Y, 48 h
Description: Cytotoxicity against human SH-SY5Y cells assessed as cell viability after 48 hrs by MTT assay

Cholinesterase = Cholinesterase (Equus caballus, UniProt P81908)
Cholinesterase, sequence (P81908 whole entry): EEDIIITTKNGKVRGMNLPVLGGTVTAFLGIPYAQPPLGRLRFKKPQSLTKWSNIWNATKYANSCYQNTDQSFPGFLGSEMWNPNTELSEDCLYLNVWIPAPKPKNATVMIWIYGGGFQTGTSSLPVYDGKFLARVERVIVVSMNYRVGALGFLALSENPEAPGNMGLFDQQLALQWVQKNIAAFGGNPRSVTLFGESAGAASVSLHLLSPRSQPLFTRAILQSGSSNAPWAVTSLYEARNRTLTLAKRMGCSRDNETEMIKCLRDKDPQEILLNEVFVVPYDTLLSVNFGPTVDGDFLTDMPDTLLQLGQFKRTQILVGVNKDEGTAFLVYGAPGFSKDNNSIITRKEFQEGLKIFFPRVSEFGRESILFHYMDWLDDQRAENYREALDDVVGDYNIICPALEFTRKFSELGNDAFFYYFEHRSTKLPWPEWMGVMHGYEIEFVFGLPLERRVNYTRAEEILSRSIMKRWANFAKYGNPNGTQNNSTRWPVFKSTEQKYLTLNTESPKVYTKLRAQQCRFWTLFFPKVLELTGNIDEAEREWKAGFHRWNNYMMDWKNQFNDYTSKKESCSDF
Description: Inhibition of horse serum butyrylcholinesterase using butylthiocholine as substrate incubated for 15 mins followed by substrate addition measured for 2 mins by Ellman's method

[1] = molecular target: Acetylcholinesterase (Electrophorus electricus) (UniProt O42275); assay: Inhibition of electric eel acetylcholinesterase using acetylthiocholine as substrate up to 100 uM incubated for 15 mins followed by substrate addition measured for 2 mins by Ellman's method relative to control
Acetylcholinesterase (Electrophorus electricus), sequence (O42275 24-633 limits assumed): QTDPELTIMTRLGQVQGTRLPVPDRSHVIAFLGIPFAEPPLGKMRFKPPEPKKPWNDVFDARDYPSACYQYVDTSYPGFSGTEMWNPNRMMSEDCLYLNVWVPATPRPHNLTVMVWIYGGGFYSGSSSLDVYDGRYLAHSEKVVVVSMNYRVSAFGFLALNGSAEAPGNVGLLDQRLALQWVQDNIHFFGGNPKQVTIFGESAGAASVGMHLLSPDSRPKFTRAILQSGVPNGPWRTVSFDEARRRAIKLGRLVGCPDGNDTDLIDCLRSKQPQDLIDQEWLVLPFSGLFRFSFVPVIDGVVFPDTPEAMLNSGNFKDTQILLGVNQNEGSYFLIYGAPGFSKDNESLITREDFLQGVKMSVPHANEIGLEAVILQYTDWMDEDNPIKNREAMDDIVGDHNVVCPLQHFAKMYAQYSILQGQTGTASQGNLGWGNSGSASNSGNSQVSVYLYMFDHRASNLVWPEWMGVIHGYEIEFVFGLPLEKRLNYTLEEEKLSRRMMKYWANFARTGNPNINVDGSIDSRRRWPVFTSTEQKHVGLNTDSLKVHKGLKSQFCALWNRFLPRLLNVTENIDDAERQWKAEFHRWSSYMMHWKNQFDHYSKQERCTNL

[2] = molecular target: Acetylcholinesterase (Homo sapiens) (UniProt P22303); assay: Ratio of compound activity to curcumin activity for inhibition of acetylcholinesterase (unknown origin)-induced amyloid beta(1 to 42) aggregation
Acetylcholinesterase (Homo sapiens), sequence (P22303 whole entry): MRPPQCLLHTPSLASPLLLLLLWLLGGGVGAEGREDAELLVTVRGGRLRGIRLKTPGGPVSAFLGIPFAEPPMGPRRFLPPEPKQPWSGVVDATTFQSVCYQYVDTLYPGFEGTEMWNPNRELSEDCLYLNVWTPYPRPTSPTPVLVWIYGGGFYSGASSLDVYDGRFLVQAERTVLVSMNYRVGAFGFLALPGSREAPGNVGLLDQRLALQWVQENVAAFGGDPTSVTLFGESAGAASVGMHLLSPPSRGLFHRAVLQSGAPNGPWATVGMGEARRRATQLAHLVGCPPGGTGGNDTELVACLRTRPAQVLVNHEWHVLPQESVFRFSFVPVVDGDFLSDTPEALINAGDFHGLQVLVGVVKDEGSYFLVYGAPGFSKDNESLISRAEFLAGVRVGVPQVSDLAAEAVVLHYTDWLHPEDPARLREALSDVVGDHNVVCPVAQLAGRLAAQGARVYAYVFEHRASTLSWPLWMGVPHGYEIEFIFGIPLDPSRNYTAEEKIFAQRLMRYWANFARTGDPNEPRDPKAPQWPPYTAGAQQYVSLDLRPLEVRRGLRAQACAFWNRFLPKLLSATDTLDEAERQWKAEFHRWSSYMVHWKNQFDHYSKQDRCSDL

[3] = molecular target: Acetylcholinesterase (Homo sapiens) (UniProt P22303); assay: Ratio of compound activity to tacrine activity for inhibition of acetylcholinesterase (unknown origin)-induced amyloid beta(1 to 42) aggregation
[4] = molecular target: Acetylcholinesterase (Electrophorus electricus) (UniProt O42275); assay: Mixed-type inhibition of electric eel AChE using acetylthiocholine as substrate at 0.125 to 2 nM after 15 mins by Lineweaver-Burk plot analysis
[5] = molecular target: Acetylcholinesterase (Electrophorus electricus) (UniProt O42275); assay: Ratio of tacrine IC50 to compound IC50 for electric eel acetylcholinesterase
[6] = Metal chelating activity of the compound assessed as formation of sodium complex at 20 uM after 30 mins by UV-vis spectrophotometric analysis; type: functional
[7] = Metal chelating activity of the compound assessed as formation of iron complex at 20 uM after 30 mins by UV-vis spectrophotometric analysis; type: functional
[8] = Metal chelating activity of the compound assessed as formation of copper complex at 20 uM after 30 mins by UV-vis spectrophotometric analysis; type: functional
[9] = Metal chelating activity of the compound assessed as formation of copper complex at 20 uM by molar ratio method; type: functional
[10] = Metal chelating activity of the compound assessed as formation of magnesium complex at 20 uM after 30 mins by UV-vis spectrophotometric analysis; type: functional
[11] = Metal chelating activity of the compound assessed as formation of potassium complex at 20 uM after 30 mins by UV-vis spectrophotometric analysis; type: functional
[12] = Metal chelating activity of the compound assessed as formation of calcium complex at 20 uM after 30 mins by UV-vis spectrophotometric analysis; type: functional
[13] = Metal chelating activity of the compound assessed as formation of zinc complex at 20 uM after 30 mins by UV-vis spectrophotometric analysis; type: functional
[14] = molecular target: Acetylcholinesterase (Electrophorus electricus) (UniProt O42275); assay: Mixed-type inhibition of electric eel AChE using acetylthiocholine as substrate at 3.125 to 50 nM after 15 mins by Lineweaver-Burk plot analysis

Acetylcholinesterase, sequence (O42275 whole entry): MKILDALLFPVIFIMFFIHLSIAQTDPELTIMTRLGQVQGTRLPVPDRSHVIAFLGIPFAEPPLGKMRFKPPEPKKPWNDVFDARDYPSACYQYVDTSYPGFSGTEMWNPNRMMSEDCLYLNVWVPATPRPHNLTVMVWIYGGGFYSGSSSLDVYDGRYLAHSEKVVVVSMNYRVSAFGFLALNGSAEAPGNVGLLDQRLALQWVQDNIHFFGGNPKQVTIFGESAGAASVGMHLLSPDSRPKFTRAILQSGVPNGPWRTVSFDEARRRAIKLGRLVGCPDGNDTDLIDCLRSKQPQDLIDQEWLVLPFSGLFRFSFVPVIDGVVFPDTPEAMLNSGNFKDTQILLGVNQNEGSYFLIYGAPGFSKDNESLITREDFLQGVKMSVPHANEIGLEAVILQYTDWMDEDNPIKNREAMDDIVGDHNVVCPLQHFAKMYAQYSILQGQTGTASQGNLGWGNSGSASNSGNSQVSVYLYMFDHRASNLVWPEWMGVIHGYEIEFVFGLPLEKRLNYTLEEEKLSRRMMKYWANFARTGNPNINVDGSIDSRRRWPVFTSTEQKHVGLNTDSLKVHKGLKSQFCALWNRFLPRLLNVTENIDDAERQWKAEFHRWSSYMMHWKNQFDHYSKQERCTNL

| Compound | IC50 (Acetylcholinesterase) [µM] | IC50 (cells) [µM] | IC50 (Cholinesterase) [µM] | inhibition [1] [%] | Ratio [2] | Ratio [3] | also measured |
| --- | --- | --- | --- | --- | --- | --- | --- |
| CN(C)CCC(=O)Nc1ccc2nc3c4[nH]c5ccccc5c4ccn3c(=O)c2c1 | 0.0561 | 5.5 | 21.4 | 20 | 2.2 | 15.3 | – |
| O=C(C[n+]1cccc(F)c1)Nc1ccc2nc3c4[nH]c5ccccc5c4ccn3c(=O)c2c1 | 0.0006 | > 100 | 1.86 | 20 | 2.2 | 15.3 | inhibition [4]: Active; Ratio IC50 [5]: 160; Activity [6]: inactive; Activity [7]: Active; Activity [8]: Active; Activity [9]: Active; Activity [10]: inactive; Activity [11]: inactive; Activity [12]: inactive; Activity [13]: Active |
| O=C(COc1cccnc1)Nc1ccc2nc3c4[nH]c5ccccc5c4ccn3c(=O)c2c1 | 0.00309 | – | 7.3 | 20 | 2.2 | 15.3 | – |
| O=C(CN1CCCC1)Nc1ccc2nc3c4[nH]c5ccccc5c4ccn3c(=O)c2c1 | 0.0593 | 2.9 | 14.4 | 20 | 2.2 | 15.3 | – |
| O=C(Cc1ccccc1)Nc1ccc2nc3c4[nH]c5ccccc5c4ccn3c(=O)c2c1 | 0.116 | – | 24.9 | 20 | 2.2 | 15.3 | – |
| O=C(CCCN1CCCC1)Nc1ccc2nc3c4[nH]c5ccccc5c4ccn3c(=O)c2c1 | 0.0846 | – | 18.5 | 20 | 2.2 | 15.3 | – |
| O=C(C[n+]1ccccc1)Nc1ccc2nc3c4[nH]c5ccccc5c4ccn3c(=O)c2c1 | 0.0008 | > 100 | 2.45 | 20 | 2.2 | 15.3 | Ratio IC50 [5]: 160 |
| O=C(CCN1CCCCC1)Nc1ccc2nc3c4[nH]c5ccccc5c4ccn3c(=O)c2c1 | 0.051 | 5 | 24 | 20 | 2.2 | 15.3 | – |
| CN(C)CC(=O)Nc1ccc2nc3c4[nH]c5ccccc5c4ccn3c(=O)c2c1 | 0.0701 | 4.1 | 26.5 | 20 | 2.2 | 15.3 | – |
| C[N+]1(CCC(=O)Nc2ccc3nc4c5[nH]c6ccccc6c5ccn4c(=O)c3c2)CCCC1 | 0.137 | 19.1 | 17.1 | 20 | 2.2 | 15.3 | – |
| O=C(CC[n+]1cccc(F)c1)Nc1ccc2nc3c4[nH]c5ccccc5c4ccn3c(=O)c2c1 | 0.0021 | > 100 | 3.49 | 20 | 2.2 | 15.3 | – |
| O=C(CCc1ccccc1)Nc1ccc2nc3c4[nH]c5ccccc5c4ccn3c(=O)c2c1 | 0.108 | – | 26.1 | 20 | 2.2 | 15.3 | – |
| O=C(CN1CCOCC1)Nc1ccc2nc3c4[nH]c5ccccc5c4ccn3c(=O)c2c1 | 0.0878 | 9.9 | 28.5 | 20 | 2.2 | 15.3 | – |
| O=C(CN1CCCCC1)Nc1ccc2nc3c4[nH]c5ccccc5c4ccn3c(=O)c2c1 | 0.07 | 6.3 | 23.2 | 20 | 2.2 | 15.3 | – |
| O=C(CCN1CCOCC1)Nc1ccc2nc3c4[nH]c5ccccc5c4ccn3c(=O)c2c1 | 0.0786 | 3.1 | 27.6 | 20 | 2.2 | 15.3 | – |
| COc1cc(/C=C/C(=O)CC(=O)/C=C/c2ccc(O)c(OC)c2)ccc1O [CURCUMIN] | – | 35.6 | – | – | – | – | – |

| Compound | IC50 (Acetylcholinesterase) [µM] | IC50 (cells) [µM] | IC50 (Cholinesterase) [µM] | inhibition [1] [%] | Ratio [2] | Ratio [3] | also measured |
| --- | --- | --- | --- | --- | --- | --- | --- |
| CCN(CC)CC(=O)Nc1ccc2nc3c4[nH]c5ccccc5c4ccn3c(=O)c2c1 | 0.0704 | 2.3 | 24.1 | 20 | 2.2 | 15.3 | – |
| C[N+](C)(C)CCC(=O)Nc1ccc2nc3c4[nH]c5ccccc5c4ccn3c(=O)c2c1 | 0.197 | 29.2 | 37.2 | 20 | 2.2 | 15.3 | – |
| CN1CCN(CC(=O)Nc2ccc3nc4c5[nH]c6ccccc6c5ccn4c(=O)c3c2)CC1 | 0.158 | 8.6 | 29.1 | 20 | 2.2 | 15.3 | – |
| O=C(CCNc1ccccc1)Nc1ccc2nc3c4[nH]c5ccccc5c4ccn3c(=O)c2c1 | 0.0875 | – | 27.8 | 20 | 2.2 | 15.3 | – |
| Cn1cc[n+](CCC(=O)Nc2ccc3nc4c5[nH]c6ccccc6c5ccn4c(=O)c3c2)c1 | 0.0093 | > 100 | 7.02 | 20 | 2.2 | 15.3 | – |
| CCN(CC)CCC(=O)Nc1ccc2nc3c4[nH]c5ccccc5c4ccn3c(=O)c2c1 | 0.0641 | 12.4 | 28.3 | 20 | 2.2 | 15.3 | – |
| O=C(CC[n+]1ccccc1)Nc1ccc2nc3c4[nH]c5ccccc5c4ccn3c(=O)c2c1 | 0.0023 | > 100 | 4.29 | 20 | 2.2 | 15.3 | – |
| O=C(CCOc1cccnc1)Nc1ccc2nc3c4[nH]c5ccccc5c4ccn3c(=O)c2c1 | 0.0143 | – | 6.43 | 20 | 2.2 | 15.3 | – |
| CN1CCN(CCC(=O)Nc2ccc3nc4c5[nH]c6ccccc6c5ccn4c(=O)c3c2)CC1 | 0.141 | 13.3 | 28.9 | 20 | 2.2 | 15.3 | – |
| O=C(CCN1CCCC1)Nc1ccc2nc3c4[nH]c5ccccc5c4ccn3c(=O)c2c1 | 0.0139 | 21.2 | 14.9 | 20 | 2.2 | 15.3 | inhibition [14]: Active |
| O=C(CNc1ccccc1)Nc1ccc2nc3c4[nH]c5ccccc5c4ccn3c(=O)c2c1 | 0.0779 | – | 25.3 | 20 | 2.2 | 15.3 | – |
| O=C(CCC[n+]1ccccc1)Nc1ccc2nc3c4[nH]c5ccccc5c4ccn3c(=O)c2c1 | 0.0039 | – | 4.16 | 20 | 2.2 | 15.3 | – |
| Cn1cc[n+](CCCC(=O)Nc2ccc3nc4c5[nH]c6ccccc6c5ccn4c(=O)c3c2)c1 | 0.0117 | – | 8.2 | 20 | 2.2 | 15.3 | – |
| Cn1cc[n+](CC(=O)Nc2ccc3nc4c5[nH]c6ccccc6c5ccn4c(=O)c3c2)c1 | 0.008 | > 100 | 7.34 | 20 | 2.2 | 15.3 | – |
| O=C(CCCc1ccccc1)Nc1ccc2nc3c4[nH]c5ccccc5c4ccn3c(=O)c2c1 | 0.136 | – | 24.6 | 20 | 2.2 | 15.3 | – |
